Measured values reported in US11213516B2, “Intravaginally applicable devices comprising antiviral compounds” (AICURIS ANTI-INFECTIVE CURES GMBH, priority 2017, dated 2022).
Several values for one entry are separate records, joined by “and”; a condition that tells them apart may be missing. Equal entries are not always repeated. Where two headings read alike, the source gives them in different places. Marks after values point to notes of the source that are not given here.

Columns and labels:
[1] = Safety and tolerance of Pritelivir loaded rings (clinical signs, body weights); assay type: in vivo, Cynomolgus monkeys; settings: single vaginal doses as rings: 40 or 240 mg free base, 49.6 or 297 mg mesylate
Method: (§1) The study was performed in four single dose phases with 28-day sampling period after Phases 1 and 2 (7-day washout period between doses). Vaginal rings were investigated for Pritelivir free base and Pritelivir mesylate salt at two dose levels per formulation. The test items were applied as vaginal ring in Phases 1 and 2 to female monkeys. The study design is below in the Table 3.
The study was designed to obtain information on the time-course of unchanged test compound concentrations in plasma and vaginal fluid/tissue, following single intravaginal administration of rings to female Cynomolgus monkeys. Objectives of this study were to determine the safety and tolerance of Pritelivir loaded rings, as well as systemic and local exposure (plasma, vaginal fluid and vaginal and vulval tissue, respectively). Local exposures were compared with in vitro efficacy data of Pritelivir to get an idea on initial pharmacokinetic/pharmacodynamic (PK/PD) parameters for vaginal rings, i.e. to assess the potential ability of a Pritelivir loaded ring to suppress viral replication in the target tissue. Table 9 gives an overview on the EC50 values of Pritelivir on HSV-1 and HSV-2 Data source: Field, H. J., et al., Baseline sensitivity of HSV-1 and HSV-2 clinical isolates and defined acyclovir-resistant strains to the helicase-primase inhibitor pritelivir. Antiviral Res, 2013. 100(2): p. 297-9. […]

[2] = Plasma concentration after intravaginal administration of vaginal ring; assay type: in vivo, Cynomolgus monkeys
Method: as §1
Venous blood samples were taken from all animals at the following times in relation to dosing.
• Blood sample site Femoral site • Blood volume 1.0 mL • Anticoagulant For phase 1 samples, Day 1-3 only, blood was sampled into standard HLS vials containing lithium heparin and 20 μL aqueous phosphoric acid (3.5 molar). Thereafter, blood was collected into tubes containing lithium heparin only. Plasma was obtained from all samples by centrifugation. Samples were appropriately labeled and stored deep frozen (−20° C. or below) until analysis • Total no. of blood samples 350 Vaginal Fluid Sampling
After suitable dilution, plasma and vaginal samples were analyzed on UPLC system Waters Acquity UPLC-HSS PFP column with 1.8 μm particles (100×2.1 mm) by gradient elution using 0.1% formic acid and methanol containing 0.1% formic acid. For detection, a time-of-flight mass spectrometer (Xevo GS-2 QTOF, Waters) was used operating in positive ionization mode (MSe analysis). The samples were analyzed for their content of Pritelivir free base.
The study was designed to obtain information on the time-course of unchanged test compound concentrations in plasma and vaginal fluid/tissue, following single intravaginal administration of rings to female Cynomolgus monkeys. Objectives of this study were to determine the safety and tolerance of Pritelivir loaded rings, as well as systemic and local exposure (plasma, vaginal fluid and vaginal and vulval tissue, respectively). Local exposures were compared with in vitro efficacy data of Pritelivir to get an idea on initial pharmacokinetic/pharmacodynamic (PK/PD) parameters for vaginal rings, i.e. to assess the potential ability of a Pritelivir loaded ring to suppress viral replication in the target tissue. Table 9 gives an overview on the EC50 values of Pritelivir on HSV-1 and HSV-2 Data source: Field, H. J., et al., Baseline sensitivity of HSV-1 and HSV-2 clinical isolates and defined acyclovir-resistant strains to the helicase-primase inhibitor pritelivir. Antiviral Res, 2013. 100(2): p. 297-9. EC50=50% effective concentration.

[3] = female, cynomolgus monkey, plasma, other: intravaginal (vaginal ring), 40 mg, ring 40 mg free base, Phase 1 Group 1, group mean, read-out: Plasma concentration of Pritelivir free base, Mean
[4] = female, cynomolgus monkey, plasma, other: intravaginal (vaginal ring), 40 mg, ring 40 mg free base, Phase 1 Group 1, individual animals, read-out: Plasma concentration of Pritelivir free base
[5] = female, cynomolgus monkey, plasma, other: intravaginal (vaginal ring), 240 mg, ring 240 mg free base, Phase 2 Group 1, group mean, read-out: Plasma concentration of Pritelivir free base, Mean
[6] = female, cynomolgus monkey, plasma, other: intravaginal (vaginal ring), 240 mg, ring 240 mg free base, Phase 2 Group 1, individual animals, read-out: Plasma concentration of Pritelivir free base

In the case of `Cc1nc(N(C)C(=O)Cc2ccc(-c3ccccn3)cc2)sc1S(N)(=O)=O` [Pritelivir free base], the “Adverse findings for clinical signs or body weights” value [1] is reported as “did not result in any adverse findings”, the “All plasma concentrations of Pritelivir” value ([2]; Phases 1 and 2, up to 28 Days, all rings) is reported as < 132 nM and < 54 μg/L and the concentration at 0.0417 d ([2]; female, cynomolgus monkey, plasma, other: intravaginal (vaginal ring), 40 mg, ring 40 mg free base, Phase 1 Group 1, 0.0417 d, group mean, read-out: Plasma concentration of Pritelivir free base, Mean) is reported as 3.43 ng/mL. It also gave a concentration at 0.0417 d ([2]; female, cynomolgus monkey, plasma, other: intravaginal (vaginal ring), 40 mg, ring 40 mg free base, Phase 1 Group 1, 0.0417 d, individual animals, read-out: Plasma concentration of Pritelivir free base) of 2.44 ng/mL, a concentration at 0.167 d [2, 3] of 5.61 ng/mL and a concentration at 0.167 d [2, 4] of 2.38 ng/mL. For the same molecule, the concentration at 0.333 d [2, 3] was 6.4 ng/mL, the concentration at 0.333 d [2, 4] was 2.22 ng/mL and the concentration at 4 d [2, 3] was 3.86 ng/mL. It also gave a concentration at 4 d [2, 4] of 3.21 ng/mL, a concentration at 7 d [2, 3] of 3.66 ng/mL and a concentration at 7 d [2, 4] of 3.55 ng/mL. For the same molecule, the concentration at 10 d [2, 3] was 3.36 ng/mL, the concentration at 10 d [2, 4] was 3.92 ng/mL and the concentration at 14 d [2, 3] was 3.31 ng/mL. It also gave a concentration at 14 d [2, 4] of 2.81 ng/mL, a concentration at 17 d [2, 3] of 3.2 ng/mL and a concentration at 17 d [2, 4] of 2.64 ng/mL. It also gave a concentration at 21 d [2, 3] of 2.91 ng/mL, a concentration at 21 d [2, 4] of 3 ng/mL and a concentration at 24 d [2, 3] of 2.99 ng/mL. The concentration at 24 d [2, 4] was 3.21 ng/mL, the concentration at 28 d [2, 3] was 2.79 ng/mL and the concentration at 28 d [2, 4] was 2.6 ng/mL. It also gave a concentration at 0.0833 d [2, 5] of 3.68 ng/mL, a concentration at 0.0833 d [2, 6] of 4.41 ng/mL and a concentration at 0.167 d [2, 5] of 4.58 ng/mL. For the same molecule, the concentration at 0.333 d [2, 5] was 5.87 ng/mL, the concentration at 3 d ([2]; female, cynomolgus monkey, plasma, other: intravaginal (vaginal ring), 240 mg, ring 240 mg free base, Phase 2 Group 1, 3 d, individual animals, read-out: Plasma concentration of Pritelivir free base) was 26.8 ng/mL and the concentration at 4 d [2, 6] was 26 ng/mL. For the same molecule, the concentration at 7 d [2, 6] was 16.4 ng/mL, the concentration at 10 d [2, 6] was 9.46 ng/mL and the concentration at 14 d [2, 6] was 9.48 ng/mL. For the same molecule, the concentration at 17 d [2, 6] was 10.8 ng/mL, the concentration at 21 d [2, 6] was 7.78 ng/mL and the concentration at 24 d [2, 6] was 9.71 ng/mL. The concentration at 28 d [2, 6] was 12.7 ng/mL, the “Plasma concentration of Pritelivir free base” value ([2]; ring 40 mg free base, Phase 1 Group 1, 0 d (pre-dose), individual animals) was 2.70 ^a μg/L and the “Plasma concentration of Pritelivir free base” value ([2]; ring 40 mg free base, Phase 1 Group 1, 0.0417 d, individual animals) was 4.73 ^ μg/L and 3.11 ^a μg/L.
